Values of other authors in PubChem BioAssay AID1259410 (Chemical Carcinogenesis Research Information System (CCRIS), 2018).

Test system: rodent tumor promotion studies, tumor incidence
Test: CCRIS tumor promotion studies
Text: The CCRIS database contains chemical records with carcinogenicity, mutagenicity, tumor promotion, and tumor inhibition test results. It was developed by the National Cancer Institute (NCI). Data are derived from studies cited in primary journals, current awareness tools, NCI reports, and other sources. Test results have been reviewed by experts in carcinogenesis and mutagenesis.
CCRIS provides historical information from the years 1985 - 2011. It is no longer updated.
This is an archive assay for CCRIS tumor promotion studies.

CCC1(CCCCCCCCCCCCC(=O)OC2C(C)C3(O)C(C=C(CO)CC4(O)C(=O)C(C)=CC43)C3C(C)(C)C23OC(C)=O)OCC(C)(C)N1[O] (stereo not drawn)
outcome (Carcinogen: 7,12-DIMETHYLBENZ[A]ANTHRACENE, 57-97-6, Doses [Carcinogen]: 100 NMOL ONCE, Doses [Promoter]: 0, 20 NMOL 2/WK FOR 24 WK BEGINNING 1 WK POST CARCINOGEN DOSE (STUDY DURATION: 25 WK), Route [Carcinogen]: DERMAL, Route [Promoter]: DERMAL, Species: MOUSE, Strain/Sex: NMRI/FEMALE): skin: tumor

CN(CCCC(=O)c1cccnc1)N=O
outcome (Carcinogen: Smoke, Doses [Carcinogen]: Exposure to smoke from non-filtered cigarettes for 6 mo, urine cotinine levels suggest equivalence to 1 pack a day human, Doses [Promoter]: 50 mg/kg every 4 wk for total of 4 doses, Route [Carcinogen]: Inhalation, Route [Promoter]: Subcutaneous, Species: Ferret, Strain/Sex: Male ( 9, 12/Group)): lung: tumors: squamous cell carcinomas (1/12), adenocarcinomas (3/12) and adenos

CC(N)Cc1ccccc1 (stereo not drawn)
outcome (Carcinogen: BITTNER MAMMARY TUMOR VIRUS, Doses [Promoter]: 0, 0.4 MG/KG/D IN 1 ML/KG OF 0.9% SALINE FOR DURATION OF STUDY (STUDY DURATION: 730 D), Route [Promoter]: SUBCUTANEOUS, Species: MOUSE, Strain/Sex: C3H/FEMALE): mammary gland: tumor

Cc1c(C)c2c(c(C)c1O)CCC(C)(CCCC(C)CCCC(C)CCCC(C)C)O2 (stereo not drawn)
outcome (Carcinogen: 7,12-DIMETHYLBENZ[A]ANTHRACENE, 57-97-6, Doses [Carcinogen]: 10 NMOL IN 0.2 ML ACETONE ONCE, Doses [Promoter]: 0, 80 UMOL IN 0.2 ML ACETONE 2/WK BEGINNING 1 WK POST CARCINOGEN DOSE AND CONTINUING FOR 19 WK (STUDY DURATION: 20 WK), Route [Carcinogen]: DERMAL, Route [Promoter]: DERMAL, Species: MOUSE, Strain/Sex: SENCAR/FEMALE): skin: papilloma

CCOC(=O)C#Cc1ccccc1
outcome (Carcinogen: 7,12-DIMETHYLBENZ[A]ANTHRACENE, 57-97-6, Doses [Carcinogen]: 10 NMOL (2.5 UG IN 200 µL ACETONE), Doses [Promoter]: 5 MG 2/WK FOR 40 WK BEGINNING 2 WK POST CARCINOGEN TREATMENT (STUDY DURATION: 42 WK), Route [Carcinogen]: DERMAL, Route [Promoter]: DERMAL, Species: MOUSE, Strain/Sex: SENCAR/FEMALE): skin: tumor | outcome (Carcinogen: 7,12-DIMETHYLBENZ[A]ANTHRACENE, 57-97-6, Doses [Carcinogen]: 100 NMOL, Doses [Promoter]: 3, 5 MG 2/WK FOR 40 WK BEGINNING 2 WK POST CARCINOGEN TREATMENT (STUDY DURATION: 42 WK), Route [Carcinogen]: DERMAL, Route [Promoter]: DERMAL, Species: MOUSE, Strain/Sex: SENCAR/FEMALE): skin: tumor

S=C=NCCCCCCc1ccccc1
outcome (Carcinogen: AZOXYMETHANE, 25843-45-2, Doses [Carcinogen]: 15 MG/KG BW 1/WK FOR 2 WK, Doses [Promoter]: 0, 640 PPM IN DIET BEGINNING 2 WK PRIOR TO CARCINOGEN DOSE (STUDY DURATION: 56 WK), Route [Carcinogen]: SUBCUTANEOUS, Route [Promoter]: ORAL, Species: RAT, Strain/Sex: F344/MALE): intestine: adenocarcinoma | outcome (Carcinogen: N-METHYL-N-BENZYLNITROSAMINE, 937-40-6, Doses [Carcinogen]: 0.5 MG/KG BW 1/WK FOR 15 WK, Doses [Promoter]: 0, 1, 2.5 UMOL/G DIET FOR DURATION OF STUDY BEGINNING 2 WK PRIOR TO CARCINOGEN TREATMENT (STUDY DURATION: 21 WK), Doses [Promoter]: 0, 1, 2.5 UMOL/G DIET FOR DURATION OF STUDY BEGINNING 2 WK PRIOR TO CARCINOGEN TREATMENT (STUDY DURATION: 21 WK), Route [Carcinogen]: SUBCUTANEOUS, Route [Promoter]: ORAL, Species: RAT, Strain/Sex: F344/MALE): esophagus: tumor

CCCCCCCCCCCCCC1(CC(=O)OC2C(C)C3(O)C(C=C(CO)CC4(O)C(=O)C(C)=CC43)C3C(C)(C)C23OC(C)=O)OCC(C)(C)N1[O] (stereo not drawn)
outcome (Carcinogen: 7,12-DIMETHYLBENZ[A]ANTHRACENE, 57-97-6, Doses [Carcinogen]: 100 NMOL ONCE, Doses [Promoter]: 0, 5 NMOL 2/WK FOR 36 WK BEGINNING 1 WK POST CARCINOGEN DOSE (STUDY DURATION: 25 WK), Route [Carcinogen]: DERMAL, Route [Promoter]: DERMAL, Species: MOUSE, Strain/Sex: NMRI/FEMALE): skin: tumor

Clc1ccc(C(c2ccc(Cl)cc2)C(Cl)(Cl)Cl)cc1
outcome (Carcinogen: 2-(ACETYLAMINO)FLUORINE, Doses [Carcinogen]: DIET, Doses [Promoter]: IN DIET, Route [Carcinogen]: ORAL, Route [Promoter]: ORAL, Species: RAT, Strain/Sex: MALE): liver | outcome (Carcinogen: N-METHYL-N'-NITRO-N-NITROSOGUANIDINE, 70-25-7, Doses [Carcinogen]: 50 PPM FOR 60 MIN, Doses [Promoter]: 0, 100 PPM IN DIET BEGINNING 14 WK POST CARCINOGEN DOSE (STUDY DURATION: 12 MO), Route [Carcinogen]: IMMERSION, Route [Promoter]: ORAL, Species: FISH, Strain/Sex: RAINBOW TROUT): liver: tumor | outcome (Carcinogen: N-NITROSODIETHYLAMINE, 55-18-5, Doses [Carcinogen]: 90 MG/KG BW ONCE, Doses [Promoter]: 0, 300 PPM IN DIET FOR 53 WK BEGINNING 2 WK POST CARCINOGEN DOSE (STUDY DURATION: 55 WK), Route [Carcinogen]: INTRAPERITONEAL, Route [Promoter]: ORAL, Species: MOUSE, Strain/Sex: D2B6F1/MALE): liver: hepatocellular adenoma, hepatocellular carcinoma | outcome (Doses [Carcinogen]: 0.5 PPM FOR 30 MIN, Doses [Promoter]: 0, 100 PPM IN DIET BEGINNING 14 WK POST CARCINOGEN DOSE (STUDY DURATION: 12 MO), Route [Carcinogen]: IMMERSION, Route [Promoter]: ORAL, Species: FISH, Strain/Sex: RAINBOW TROUT): liver: tumor | outcome (Doses [Carcinogen]: 50 UG 2/WK FOR WK 1-4 OF STUDY THEN 75 UG 2/WK FOR WK 5-8, Doses [Promoter]: 0, 7.5 MG 2/WK FOR 14 WK BEGINNING 1 WK POST CARCINOGEN TREATMENT (STUDY DURATION: 1 YR), Route [Carcinogen]: GAVAGE, Route [Promoter]: GAVAGE, Species: RAT, Strain/Sex: WISTAR/MALE): liver: carcinoma | outcome (Doses [Carcinogen]: 50 UG 2/WK FOR WK 1-4 OF STUDY THEN 75 UG 2/WK FOR WK 5-8, Doses [Promoter]: 0, 7.5 MG 2/WK FOR 14 WK BEGINNING 3 WK POST CARCINOGEN TREATMENT (STUDY DURATION: 1 YR), Route [Carcinogen]: GAVAGE, Route [Promoter]: GAVAGE, Species: RAT, Strain/Sex: WISTAR/MALE): liver: carcinoma

Cc1ccc(O)c(C(C)(C)C)c1
outcome (Carcinogen: N-BUTYL-N-(4-HYDROXYBUTYL)NITROSAMINE, 3817-11-6, Doses [Carcinogen]: 0.5% IN DRINKING WATER FOR 4 WK, Doses [Promoter]: 0, 1% IN DIET FOR 32 WK BEGINNING 3 D POST CARCINOGEN TREATMENT (STUDY DURATION: 36 WK), Route [Carcinogen]: ORAL, Route [Promoter]: ORAL, Species: RAT, Strain/Sex: F344/MALE): bladder: carcinoma, papilloma

Cn1c(N)nc2c3cccnc3ccc21
outcome (Carcinogen: Diethyl nitrosamine (DEN), 55-18-5 and dimethylhydrazine (DMH), 30260-66-3, Carcinogen: Diethyl nitrosamine (DEN), 55-18-5 and dimethylhydrazine (DMH), 30260-66-3, Doses [Carcinogen]: DEN, 200 mg/kg once at -3 days, DMH, 40 mg/kg 4 injections between day 0 and wk 2, Doses [Promoter]: 0, 300 ppm in diet from week 2 to 29, study duration 29 wk, Doses [Promoter]: 0, 300 ppm in diet from week 2 to 29, study duration 29 wk, Route [Carcinogen]: Intraperitoneal (DEN) and subcutaneous (DMH), Route [Promoter]: Oral, Species: Rat, Strain/Sex: F344/Du Crj (20/group with 11 survivors)): liver: hepatocellular adenoma and carcinoma. colon adenoma and carcinoma. signif

C1COCCO1
outcome (Carcinogen: 7,12-DIMETHYLBENZ(A)ANTHRACENE, Doses [Carcinogen]: TOP, Route [Carcinogen]: DERMAL, Route [Promoter]: DERMAL, Species: MOUSE, Strain/Sex: MALE,FEMALE): integumentary system (skin)

CC1(OO)C=C(C(C)(C)C)C(=O)C(C(C)(C)C)=C1
outcome (Carcinogen: 7,12-DIMETHYLBENZ[A]ANTHRACENE, 57-97-6, Doses [Carcinogen]: 20 NMOL IN 200 µL ACETONE ONCE, Doses [Promoter]: 0, 8 UMOL 2/WK FOR 50 WK BEGINNING 10 D POST CARCINOGEN DOSE (STUDY DURATION: 52 WK), Route [Carcinogen]: DERMAL, Route [Promoter]: DERMAL, Species: MOUSE, Strain/Sex: SENCAR/FEMALE): skin: papilloma or carcinoma | outcome (Carcinogen: 7,12-DIMETHYLBENZ[A]ANTHRACENE, 57-97-6, Doses [Carcinogen]: 20 NMOL IN 200 µL ACETONE ONCE, Doses [Promoter]: 0, 20 UMOL 2/WK FOR 50 WK BEGINNING 10 D POST CARCINOGEN DOSE (STUDY DURATION: 52 WK), Route [Carcinogen]: DERMAL, Route [Promoter]: DERMAL, Species: MOUSE, Strain/Sex: SENCAR/FEMALE): skin: papilloma or carcinoma

CNC[C@H](O)c1cccc(O)c1
outcome (Carcinogen: N-METHYL-N'-NITRO-N-NITROSOGUANIDINE, 70-25-7, Doses [Carcinogen]: 25 UG/ML IN DRINKING WATER FOR 20 WK, Doses [Promoter]: 0, 6 MG/KG BW IN OLIVE OIL 1/2 D BEGINNING POST CARCINOGEN TREATMENT (STUDY DURATION: 52 WK), Route [Carcinogen]: ORAL, Route [Promoter]: SUBCUTANEOUS, Species: RAT, Strain/Sex: WISTAR/MALE): stomach: adenocarcinoma | outcome (Carcinogen: N-METHYL-N'-NITRO-N-NITROSOGUANIDINE, 70-25-7, Doses [Carcinogen]: 25 UG/ML IN DRINKING WATER FOR 25 WK, Doses [Promoter]: 0, 6 MG/KG BW 1/2 D FOR 27 WK BEGINNING POST CARCINOGEN TREATMENT (STUDY DURATION: 52 WK), Route [Carcinogen]: ORAL, Route [Promoter]: SUBCUTANEOUS, Species: RAT, Strain/Sex: WISTAR/MALE): glandular stomach: adenocarcinoma

C[C@]12CC[C@@H]3c4ccc(O)cc4CC[C@H]3[C@@H]1CCC2=O
outcome (Carcinogen: N-METHYL-N-NITROSOUREA, 684-93-5, Doses [Carcinogen]: 1 MG/100 G BW INJECTED INTO LEFT UTERINE TUBE ONCE, Doses [Promoter]: 0, 25 PPM IN DIET BEGINNING 1 WK POST CARCINOGEN TREATMENT (STUDY DURATION: 30 WK), Route [Carcinogen]: INJECTION, Route [Promoter]: ORAL, Species: MOUSE, Strain/Sex: ICR/FEMALE): uterus (left): adenocarcinoma
